Reference: BindingDB's records for patent US20250214942 (University ff Texas System, 2025)

Target: T1, Receptor-interacting serine/threonine-protein kinase 1 (Homo sapiens, UniProt Q13546)
T1 sequence (Q13546 whole entry): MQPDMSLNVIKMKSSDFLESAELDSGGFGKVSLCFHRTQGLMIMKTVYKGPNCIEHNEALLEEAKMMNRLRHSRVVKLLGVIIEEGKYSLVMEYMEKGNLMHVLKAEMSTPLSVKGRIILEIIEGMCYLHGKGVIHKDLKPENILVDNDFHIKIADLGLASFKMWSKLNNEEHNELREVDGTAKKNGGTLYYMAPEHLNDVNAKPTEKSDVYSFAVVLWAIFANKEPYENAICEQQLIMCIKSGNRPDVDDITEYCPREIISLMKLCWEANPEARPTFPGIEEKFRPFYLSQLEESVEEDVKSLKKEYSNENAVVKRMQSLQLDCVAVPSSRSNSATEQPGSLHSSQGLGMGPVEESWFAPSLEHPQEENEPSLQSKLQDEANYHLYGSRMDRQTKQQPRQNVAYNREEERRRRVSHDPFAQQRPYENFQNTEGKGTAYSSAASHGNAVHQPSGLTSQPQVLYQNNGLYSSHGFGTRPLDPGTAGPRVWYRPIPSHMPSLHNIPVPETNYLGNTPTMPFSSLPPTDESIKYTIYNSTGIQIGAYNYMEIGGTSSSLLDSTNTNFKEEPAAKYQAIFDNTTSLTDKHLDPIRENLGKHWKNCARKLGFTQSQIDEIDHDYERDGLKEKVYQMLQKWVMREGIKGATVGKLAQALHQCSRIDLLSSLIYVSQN
Assay: ADP-Glo Kinase Assay
Description: In order to measure RIPK1 activity the ADP-Glo kinase assay (Promega, Catalog #V7002) was used to measure the conversion of ATP to ADP. […] Stock solutions of the test compounds were prepared in 100% DMSO (Sigma, Catalog #D2650) and serially diluted 1:3 using 100% DMSO. Compounds were additionally diluted 1:40 in assay buffer, and 2 μL/well were transferred to the assay plate. 4 μL/well (final concentration of 5 nM) of RIPK1 protein (SignalChem, Catalog #R07-1IG-05) diluted in assay buffer and added to the assay plate followed by a 10 minute preincutation at rt. 4 μL/well of ATP (Promega, Catalog #V7002) (final concentration of 50 μM) diluted in assay buffer were then added to the assay plate followed by a 6 h reaction time. Final concentrations of RIPK1 and ATP refer to a 10 μL volume. Luminescence was measured using a BioTek Synergy™ NEO plate reader. IC50 values were calculated using a four-parameter logistic curve fit using Genedata Screener software.

IC50: 0.08 µM
SMILES: O=C(N1N=CCC1c1cc(F)cc(F)c1)C12CC(Cn3ncc4ncccc43)(C1)C2 (stereo unspecified) [US20250214942, Example 148]
